Test system: Phakopsora pachyrhizi
Test: Fungicidal activity: Asian soybean rust (PHAKPA), soybean seedlings
Assay type: in vivo
Details: High volume, 25 ppm, 3 Day Curative
Experimental: Example C: Evaluation of Fungicidal Activity: Asian Soybean Rust (Phakopsora pachyrhizi; Bayer Code […]) Technical grades of materials were dissolved in acetone, which were then mixed with nine volumes of water containing 0.011% Tween 20. The fungicide solutions were applied onto soybean seedlings using an automated booth sprayer to run-off. All sprayed plants were allowed to air dry prior to further handling. Soybean plants (variety Williams 82) were grown in soil-less Metro mix, with one plant per pot. Two week old seedlings were used for testing. Plants were inoculated either 3 days prior to or 1 day after fungicide treatments. Plants were incubated for 24 h in a dark dew room at 22° C. and 100% relative humidity then transferred to a growth room at 23° C. for disease to develop. Disease severity was assessed on the sprayed leaves.

Row | SMILES | PHAKPA disease control, 3DC
1 | COc1ccnc(C(=O)N[C@@H](C)C(=O)O[C@@H](C)[C@@H](c2ccc(F)cc2C)C(C)C)c1OC(C)=O [compound 178] | B (≤80)
2 | COc1ccnc(C(=O)N[C@@H](C)C(=O)O[C@@H](C)[C@H](c2ccc(C)cc2F)C(C)C)c1OC(C)=O [compound 366] | B (≤80)
3 | COc1ccnc(C(=O)N[C@@H](C)C(=O)O[C@@H](C)[C@@H](c2ccc(C)cc2F)C(C)C)c1OC(C)=O [compound 369] | B (≤80)
4 | COc1ccnc(C(=O)N[C@@H](C)C(=O)O[C@H](C)[C@H](c2ccc(F)cc2C)C(C)C)c1OC(C)=O [compound 192] | B (≤80)
